# How the values were obtained:
# [1] = tested on: DBA/1 mice with established CIA; test: Treatment of established CIA (Example 4): clinical score, paw-swelling, histology, relapse; assay type: in vivo, mouse
# Experimental: FIG. 6 is a graphical representation of the treatment of established CIA with 3,4-DAA. DBA/1 mice were immunised with type II collagen in CFA and monitored for development of arthritis. On day 1 of arthritis, mice were injected intraperitoneally with 3,4-DAA on a daily basis. Paw thickness was measured with callipers. The clinical scoring system was as follows: 0=normal, 1=slight swelling and/or erythema, and 2=pronounced oedematous swelling. Each limb was graded, giving a maximum score of 8 per mouse. Histological assessment of arthritis was carried out on haematoxylin and eosin stained sections using a scoring system as follows: 0, normal; 1, minimal synovitis without cartilage/bone erosion; 2, synovitis with some marginal erosion but joint architecture maintained; 3, severe synovitis and erosion with loss of normal joint architecture. There were 14 mice/group (data pooled from two separate experiments). *, P<0.05 (compared to control group).
# FIG. 9 is a graphical representation depicting the relapse of arthritis 4 days after cessation of therapy. Mice with established CIA (n=6) were treated with 3,4-DAA (400 mg/kg/day) from days 1 to 5 of arthritis and clinical severity of arthritis was monitored up to day 12. Arthritis is seen to relapse at around day 9.
# Type II collagen was purified from bovine cartilage, as described [Williams, R. O. 2004, Methods Mol. Med. 98:207-216] and solubilized by stirring overnight at 4° C. in acetic acid (0.1M) or Tris buffer (0.05 M Tris, containing 0.2 M NaCl, pH 7.4). Tranilast was synthesised by Angiogen Pharmaceuticals Pty. Ltd. For in vivo studies Tranilast was dissolved at a maximum concentration of 10 mg/ml in 1% sodium bicarbonate by heating for 1 h at 70° C. Upon cooling, an emulsion was formed. For in vitro studies Tranilast was dissolved in dimethyl sulphoxide (DMSO). 3-Hydroxy-anthranilic acid (3-HAA) was purchased from Sigma (Poole, UK) and dissolved in PBS.
# Male DBA/1 mice (8-12 weeks old) were immunized intradermally at the base of the tail with bovine type II collagen (200 μg) emulsified in complete Freund's adjuvant (CFA; Difco, West Moseley, UK). Arthritis was monitored clinically using the following scoring system: 0=normal, 1=slight swelling and/or erythema, and 2=pronounced oedematous swelling. Each limb was graded, giving a maximum score of 8 per mouse. In addition, paw-swelling was measured using calipers.
# Histopathological assessment of arthritis was carried out in a blinded fashion on decalcified haematoxylin and eosin stained sections using a scoring system as follows: 0, normal; 1, minimal synovitis without cartilage/bone erosion; 2, synovitis with some marginal erosion but joint architecture maintained; 3, severe synovitis and erosion with loss of normal joint architecture. This research was approved by the local ethical review process committee and by the Home Office of Great Britain.
# The ability of Tranilast to treat established CIA was tested. Mice were immunised with type II collagen in CFA. On day 1 of clinical arthritis (the day that arthritis was first observed) mice were randomly assigned to different treatment groups and given Tranilast (100 mg/kg/day, 200 mg/kg/day or 400 mg/kg/day) or vehicle alone over a 10 day period. […]
# It is clearly of interest to establish what happens when treatment with Tranilast is stopped. […] Treatment was then stopped and mice were monitored for a further 7 days.
# [2] = tested on: B cells stimulated with anti-CD40; test: Purified B cell proliferation, anti-CD40, 3H-thymidine incorporation (Example 4); assay type: cell-based, mouse
# Experimental: FIG. 10 is a graphical representation depicting that 3,4-DAA and 3-HAA inhibit B and T cell proliferation in vitro. Purified B and T cells were stimulated for 72 h with anti-CD40 (a), or anti-CD3/anti-CD28 (b) respectively, in the presence of varying doses of 3,4-DAA, or 3-HAA.
# A single cell suspension was prepared from spleen by mincing through a cell strainer, and erythrocytes were lysed using an ammonium chloride solution (Sigma, St Louis, Mo., USA). B cells were positively enriched by using anti-IgM MACS microbeads, and T cells were positively enriched using anti-CD4 MACS microbeads and the MACS system, according to the manufacturer's guidelines (Miltenyi Biotec, Bergisch Gladbach, Germany). Purity was assessed by flow cytometric analysis (B cell>90% CD19+, T cell>90% CD4+). Cells were cultured at 5×10^5 cells/ml in 200 μl complete RPMI, as above, in a flat bottom 96-well plate and cultured for 72 h. B cells were stimulated with anti-CD40 monoclonal antibody (10 μg/ml; BD), and T cells were stimulated with 5 μg/ml plate-bound anti-CD3 (BD), 5 μg/ml soluble anti-CD28 (BD). Tranilast, 3-HAA, or vehicle (DMSO) were incubated at concentrations stated with the cultures. 48 hours after stimulation, 100 μl culture medium was collected, and cells were pulsed with 1 μCi ^3H thymidine per well for 18 h. Cells were then harvested and plates assessed for incorporation. Each assay was performed on a minimum of 3 occasions. Data shown is of one representative experiment, and is expressed as mean+/−SD of triplicate in culture. IFN-γ, IL-10 and IL-5 levels was assessed in the culture medium by ELISA, as above.
# [3] = 100, 200 or 400 mg/kg/day, 10 days (FIG. 6)
structure (smiles),measurement,setting,value
"COc1ccc(/C=C/C(=O)Nc2ccccc2C(=O)O)cc1OC [Tranilast, 2-[[3-(3,4-dimethoxyphenyl)-1-oxo-2-propenyl]amino]benzoic acid]",day of relapse (exacerbation) of arthritis after cessation of therapy,"[1]; 400 mg/kg/day days 1 to 5, monitored up to day 12 (FIG. 9)",9 days
same,arthritis severity during the treatment period,"[1]; 400 mg/kg/day, day 1 to day 5 of arthritis (FIG. 9)",dramatic reduction in arthritis severity
same,clinical scores,[1]; [3],dose-dependent reduction
same,paw-swelling,[1]; [3],dose-dependent reduction
same,histological severity of arthritis,[1]; day 10 (FIG. 6),clear dose-dependent reduction
same,IC50,"[2]; Mus musculus, B-cell, anti-CD40, 72 h, 3H-thymidine (FIG. 10A), read-out: IC50 for inhibition of B cell proliferation",73.1 µM
same,B cell proliferation,"[2]; anti-CD40, varying doses (FIG. 10A)",dose-dependently inhibited

# — patent US20100041756A1, “METHOD OF MODULATING B CELL FUNCTIONING” (priority 2004, published 2010)
